# In patent US20260001893A1, “SMALL MOLECULE MODULATORS OF STAT6” (Gilead Sciences, Inc., priority 2024, published 2026):
# Key:
# [1] = molecular target: T1, Human STAT6 (truncated, aa122-658, with N-terminal His-tag) (Homo sapiens, UniProt P42226); experiment: Surface plasmon resonance (SPR) assay, binding to human STAT6; settings: Biacore 8K, 25° C, immobilized human STAT6 on CM5 chip, multi-cycle kinetics; geometric mean
# T1 construct: Human STAT6 (truncated, aa122-658, with N-terminal His-tag, expressed in insect cells); His-tag (N); made in house; host or cells: insect cells
# T1 sequence (P42226 122-658): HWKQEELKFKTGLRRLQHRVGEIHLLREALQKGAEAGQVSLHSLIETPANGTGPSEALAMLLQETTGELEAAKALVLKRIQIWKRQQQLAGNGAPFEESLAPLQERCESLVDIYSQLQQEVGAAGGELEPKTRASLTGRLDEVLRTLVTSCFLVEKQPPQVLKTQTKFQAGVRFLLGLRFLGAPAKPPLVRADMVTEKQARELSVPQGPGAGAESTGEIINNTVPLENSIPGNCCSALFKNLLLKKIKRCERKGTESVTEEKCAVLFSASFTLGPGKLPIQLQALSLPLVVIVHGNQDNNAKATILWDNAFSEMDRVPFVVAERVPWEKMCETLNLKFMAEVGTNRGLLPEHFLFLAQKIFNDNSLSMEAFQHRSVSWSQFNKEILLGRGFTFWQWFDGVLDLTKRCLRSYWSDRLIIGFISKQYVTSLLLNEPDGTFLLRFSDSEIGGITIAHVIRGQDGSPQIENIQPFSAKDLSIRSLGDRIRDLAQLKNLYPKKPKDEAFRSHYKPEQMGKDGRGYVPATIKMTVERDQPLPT
# Protocol: Surface Plasmon Resonance Assay
# Biacore instruments from the 8K-series (Cytiva) were used, and measurements were performed at 25° C. Human STAT6 (truncated, aa122-658, with N-terminal His-tag, expressed in insect cells) was immobilized in the active flow cells on a CM5 chip using amine-coupling (default settings) at 10 μg/ml in 10 mM acetate buffer pH 5.5, at a contact time of 120-420 sec. and a flow rate of 10 μl/min. Reference flow cells were deactivated using blank immobilization. PBS-P+(Cytiva) supplemented with 2% DMSO was used as running buffer, and solvent correction was applied. Compounds were tested by multi-cycle kinetics injections using a contact time of 60 sec., dissociation time of up to 300 sec., and a flow rate of 30 μl/min.
# Solvent-corrected, reference-subtracted and blank-corrected data was processed and binding isotherms were fitted according to a single report point from each sensorgram (Standard: Late binding (5 sec. before injection end); alternative: Earlier report point according to binding profile). Data fitting was done both with unfixed Rmax and with Rmax fixed to the theoretical value* assuming 1:1 binding to allow processing of data from both weak and strong binders as well as to evaluate binding stoichiometry.
# Positive controls were run at the beginning, during, and at the end of the screen to evaluate surface activity.
# *Equation for calculation of the theoretical Rmax(Theoretical Rmax=(MW Analyte/MW Ligand)×immobilization level).
# [2] = test system: Eotaxin-3 (CCL26) release in human whole blood stimulated with IL-4; experiment: Human whole blood eotaxin-3 assay (IL-4 stimulated eotaxin-3 release); type: cell-based; settings: Homo sapiens, 48 h, human whole blood stimulated with recombinant human IL-4, 48 h, geometric mean; for EC50: inhibition of eotaxin-3 release, given for test compounds with >80% Emax; for Emax: given for test compounds with <80% Emax
# How it was run: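 Lithium-heparin human whole blood was preincubated with compound (4-fold serial dilution, 0.5% DMSO final) for 2 h at 37° C, then stimulated with recombinant human IL-4 at […] final for 48 h. Eotaxin-3 (CCL26) in the supernatant was measured by MSD immunoassay.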
Kd [1],EC50 [2],Compound,Emax [2]
0.0322 µM,0.205 µM,"CNc1ccn(-c2ccnc3c2cc(CN2CC[C@@H](c4ccc(C(=O)N(C)C)cc4)[C@H](F)C2)n3C)c(=O)c1 (single isomer, unassigned) [Example 1f4]",
0.0217 µM,0.245 µM,"CNc1ccn(-c2ccnc3c2cc(CN2CC[C@@H](c4ccc(C(=O)N(C)C)cc4)[C@@H](F)C2)n3C)c(=O)c1 (single isomer, unassigned) [Example 1f7]",
0.0121 µM,0.026 µM,"CNc1ccn(-c2ccnc3c2cc([C@@H](C)N2CCC(c4ccc(C(=O)N(C)C)cc4)CC2)n3C)c(=O)c1 (single isomer, unassigned) [Example 1m73]",
0.015 µM,0.0985 µM,"CNc1ccn(-c2ccnc3c2cc(CN2CC[C@H](c4ccc(C(=O)N(C)C)cc4)C(F)(F)C2)n3C)c(=O)c1 (stereo in doubt) [Example 1f1, N,N-Dimethyl-4-[(4R)-3,3-difluoro-1-[[1-methyl-4-[4-(methylamino)-2-oxo-1-pyridyl]pyrrolo[2,3-b]pyridin-2-yl]methyl]-4-piperidyl]-benzamide]",
0.0204 µM,0.193 µM,"CN(C)C(=O)c1ccc(C2CCN(Cc3cc4c(-n5ccc6[nH]nc(C(F)(F)F)c6c5=O)ccnc4n3C)CC2)cc1 [Example 1ab3, N,N-Dimethyl-4-(1-((1-methyl-4-(4-oxo-3-(trifluoromethyl)-1,4-dihydro-5H-pyrazolo[4,3-c]pyridin-5-yl)-1H-pyrrolo[2,3-b]pyridin-2-yl)methyl)piperidin-4-yl)benzamide]",
0.0373 µM,,"CN(C)C(=O)c1ccc(C2CCN(Cc3cc4c(-n5ccc(N)nc5=O)ccnc4n3C)CC2)cc1 [Example 1ab6, 4-(1-((4-(4-Amino-2-oxopyrimidin-1 (2H)-yl)-1-methyl-1H-pyrrolo[2,3-b]pyridin-2-yl)methyl)piperidin-4-yl)-N,N-dimethylbenzamide]",70 to 80%
0.0754 µM,,"CN(C)C(=O)c1ccc(C2CCN(Cc3cc4c(-n5cc(F)c(N)nc5=O)ccnc4n3C)CC2)cc1 [Example 1ac2, 4-(1-((4-(4-Amino-5-fluoro-2-oxopyrimidin-1 (2H)-yl)-1-methyl-1H-pyrrolo[2,3-b]pyridin-2-yl)methyl)piperidin-4-yl)-N,N-dimethylbenzamide]",70 to 80%
0.0125 µM,0.119 µM,"CN(C)C(=O)c1ccc(C2CCN(Cc3cc4c(-n5ccc(N)cc5=O)ccnc4n3C)CC2)cc1 [Example 1d1, 4-[1-[[4-(4-Amino-2-oxo-1-pyridyl)-1-methyl-pyrrolo[2,3-b]pyridin-2-yl]methyl]-4-piperidyl]-N,N-dimethyl-benzamide]",
0.0182 µM,0.0841 µM,"CNc1ccn(-c2ccnc3c2cc(CN2CCC(c4ccc(C(=O)N(C)C)cc4)CC2)n3C)c(=O)c1 [Example 1d3, N,N-Dimethyl-4-[1-[[1-methyl-4-[4-(methylamino)-2-oxo-1-pyridyl]pyrrolo[2,3-b]pyridin-2-yl]methyl]-4-piperidyl]benzamide]",
0.0209 µM,0.221 µM,"[2H]C([2H])([2H])N(C(=O)c1ccc(C2CCN(Cc3cc4c(-n5ccc(NC)cc5=O)ccnc4n3C)CC2)cc1)C([2H])([2H])[2H] [Example 1d4, 4-[1-[[1-Methyl-4-[4-(methylamino)-2-oxo-1-pyridyl]pyrrolo[2,3-b]pyridin-2-yl]methyl]-4-piperidyl]-N,N-bis(trideuteriomethyl)benzamide]",
0.0329 µM,0.257 µM,"CN(C)C(=O)c1ccc(C2CCN(Cc3cc4c(-n5cc(F)c(N)cc5=O)ccnc4n3C)CC2)cc1 [Example 1d19, 4-[1-[[4-(4-Amino-5-fluoro-2-oxo-1-pyridyl)-1-methyl-pyrrolo[2,3-b]pyridin-2-yl]methyl]-4-piperidyl]-N,N-dimethyl-benzamide]",
0.0161 µM,0.0993 µM,"CN(C)C(=O)c1ccc(C2CCN(Cc3cc4c(-n5ccc(N)c(Br)c5=O)ccnc4n3C)CC2)cc1 [Example 1d20, 4-[1-[[4-(4-Amino-3-bromo-2-oxo-1-pyridyl)-1-methyl-pyrrolo[2,3-b]pyridin-2-yl]methyl]-4-piperidyl]-N,N-dimethyl-benzamide]",
0.021 µM,0.0958 µM,"Cc1c(N)ccn(-c2ccnc3c2cc(CN2CCC(c4ccc(C(=O)N(C)C)cc4)CC2)n3C)c1=O [Example 1d21, 4-[1-[[4-(4-Amino-3-methyl-2-oxo-1-pyridyl)-1-methyl-pyrrolo[2,3-b]pyridin-2-yl]methyl]-4-piperidyl]-N,N-dimethyl-benzamide]",
0.0218 µM,,"CN(C)C(=O)c1ccc(C2CCN(Cc3cc4c(-n5ccc6c(c5=O)CCN6)ccnc4n3C)CC2)cc1 [Example 1d23, N,N-Dimethyl-4-[1-[[1-methyl-4-(4-oxo-2,3-dihydro-1H-pyrrolo[3,2-c]pyridin-5-yl)pyrrolo[2,3-b]pyridin-2-yl]methyl]-4-piperidyl]benzamide]",70 to 80%
0.0692 µM,,"CNc1ccn(-c2ccnc3c2cc(CN2CCC(c4ccc(C(=O)N(C)C)cc4C)CC2)n3C)c(=O)c1 [Example 1d25, N,N,3-Trimethyl-4-[1-[[1-methyl-4-[4-(methylamino)-2-oxo-1-pyridyl]pyrrolo[2,3-b]pyridin-2-yl]methyl]-4-piperidyl]benzamide]",70 to 80%
0.016 µM,0.0251 µM,"CNc1ccn(-c2ccnc3c2cc(CN2CCC(c4c(C)cc(C(=O)N(C)C)cc4C)CC2)n3C)c(=O)c1 [Example 1d27, N,N,3,5-Tetramethyl-4-[1-[[1-methyl-4-[4-(methylamino)-2-oxo-1-pyridyl]pyrrolo[2,3-b]pyridin-2-yl]methyl]-4-piperidyl]benzamide]",
0.0286 µM,0.588 µM,"CN(C)C(=O)c1ccc(C2CCN(Cc3cc4c(-n5ccc(N)c(C(F)(F)F)c5=O)ccnc4n3C)CC2)cc1 [Example 1d29, 4-[1-[[4-[4-Amino-2-oxo-3-(trifluoromethyl)-1-pyridyl]-1-methyl-pyrrolo[2,3-b]pyridin-2-yl]methyl]-4-piperidyl]-N,N-dimethyl-benzamide]",
0.025 µM,0.0884 µM,"COCc1c(N)ccn(-c2ccnc3c2cc(CN2CCC(c4ccc(C(=O)N(C)C)cc4)CC2)n3C)c1=O [Example 1d30, 4-[1-[[4-[4-Amino-3-(methoxymethyl)-2-oxo-1-pyridyl]-1-methyl-pyrrolo[2,3-b]pyridin-2-yl]methyl]-4-piperidyl]-N,N-dimethyl-benzamide]",
0.0223 µM,0.1 µM,"CN(C)C(=O)c1ccc(C2CCN(Cc3cc4c(-n5ccc(N)c(F)c5=O)ccnc4n3C)CC2)cc1 [Example 1d31, 4-[1-[[4-(4-Amino-3-fluoro-2-oxo-1-pyridyl)-1-methyl-pyrrolo[2,3-b]pyridin-2-yl]methyl]-4-piperidyl]-N,N-dimethyl-benzamide]",
0.0142 µM,0.0298 µM,"CNc1ccn(-c2ccnc3c2cc(CN2CCC(c4ccc(C(=O)N(C)C)cc4F)CC2)n3C)c(=O)c1 [Example 1d34, 3-Fluoro-N,N-dimethyl-4-[1-[[1-methyl-4-[4-(methylamino)-2-oxo-1-pyridyl]pyrrolo[2,3-b]pyridin-2-yl]methyl]-4-piperidyl]benzamide]",
0.0516 µM,0.26 µM,"CNc1ccn(-c2ccnc3c2cc(CN2CCC(c4ccc(C(=O)N(C)C)cc4OC)CC2)n3C)c(=O)c1 [Example 1d36, 3-Methoxy-N,N-dimethyl-4-[1-[[1-methyl-4-[4-(methylamino)-2-oxo-1-pyridyl]pyrrolo[2,3-b]pyridin-2-yl]methyl]-4-piperidyl]benzamide]",

Compound,Kd [1],EC50 [2],Emax [2]
"CN(C)C(=O)c1ccc(C2CCN(Cc3cc4c(-n5ccc(N)c(COC(C)(C)C)c5=O)ccnc4n3C)CC2)cc1 [Example 1d39, 4-[1-[[4-[4-Amino-3-(tert-butoxymethyl)-2-oxo-1-pyridyl]-1-methyl-pyrrolo[2,3-b]pyridin-2-yl]methyl]-4-piperidyl]-N,N-dimethyl-benzamide]",0.0987 µM,0.961 µM,
